Results taken from US8802664B2 (Bioproject, priority 2010, dated 2014).

These compounds were tested against T1, human H4 receptor (Homo sapiens, UniProt Q9H3N8) (assay: [3H]Histamine binding on membranes of CHO cells stably expressing human H4 receptor). Conditions: not given.
T1 construct: expressed in transfected cells
How it was run: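 Filter-bound counts (liquid scintillation) gave H4 binding. Incubation used 20 μg membrane protein/well in Tris/HCl 50 mM plus EDTA 0.5 mM at pH 7.4, and 10 μM JNJ 7777120 set nonspecific binding. Filtration on GF/B pretreated with polyethyleneimine stopped the reaction.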

T1 sequence (Q9H3N8 whole entry): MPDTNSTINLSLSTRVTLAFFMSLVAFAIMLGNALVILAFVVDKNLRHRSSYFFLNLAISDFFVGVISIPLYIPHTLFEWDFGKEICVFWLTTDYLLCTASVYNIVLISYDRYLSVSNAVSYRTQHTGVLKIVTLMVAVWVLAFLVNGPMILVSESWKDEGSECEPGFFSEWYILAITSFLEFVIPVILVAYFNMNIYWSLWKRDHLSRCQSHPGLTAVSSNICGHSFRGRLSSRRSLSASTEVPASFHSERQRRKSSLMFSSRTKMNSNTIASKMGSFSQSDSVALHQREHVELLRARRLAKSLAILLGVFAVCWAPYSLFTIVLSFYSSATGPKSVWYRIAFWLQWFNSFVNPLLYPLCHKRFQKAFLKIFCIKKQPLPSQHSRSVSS

`CN1CCC(OC(c2cccc(OCCCCN)c2)c2nc3ccccc3s2)CC1` (centres unmarked) [Example 301, 4-{3-[benzothiazol-2-yl(1-methylpiperidin-4-yloxy)methyl]phenoxy}butylamine] and `Cc1ccc2sc(C(OC3CCN(C)CC3)c3ccccc3)nc2c1` (centres unmarked) [Example 29, 5-methyl-2-[(1-methylpiperidin-4-yloxy)phenylmethyl]benzothiazole] cannot be ordered by Ki or IC50 activity class: less than 30 nM for the first, less than 1000 nM for the second.

`CN1CCC(OC(c2cccc(SCCCCN)c2)c2nc3ccccc3[nH]2)CC1` (centres unmarked) [Example 326, 4-{3-[(1H-benzimidazol-2-yl)(1-methylpiperidin-4-yloxy)methyl]phenylsulfanyl}butylamine] and `CN1CCC(OC(c2cccc(SCCCF)c2)c2nc3ccccc3[nH]2)CC1` (centres unmarked) [Example 508] cannot be ordered by Ki or IC50 activity class: less than 30 nM for the first, less than 30 nM for the second.

`CN1CCC(OC(c2cccc(SCCCCCO)c2)c2nc3ccccc3[nH]2)CC1` (centres unmarked) [Example 445, 5-{3-[(1H-benzimidazol-2-yl)(1-methylpiperidin-4-yloxy)methyl]phenylsulfanyl}pentan-1-ol] and `CN1CCC(OC(c2cccc(SCC=CCN)c2)c2nc3ccccc3[nH]2)CC1` (centres unmarked) [Example 473] cannot be ordered by Ki or IC50 activity class: less than 300 nM for the first, less than 30 nM for the second.

`CN1CCC(OC(c2cccc(SCCNC3=NCCN3)c2)c2nc3ccccc3[nH]2)CC1` (centres unmarked) [Example 317, (2-{3-[(1H-benzimidazol-2-yl)(1-methylpiperidin-4-yloxy)methyl]-phenylsulfanyl}ethyl)(4,5-dihydro-1H-imidazol-2-yl)amine] and `C#Cc1cccc(C(OC2CCN(C)CC2)c2nc3ccccc3[nH]2)c1` (centres unmarked) [Example 195, 2-[(3-ethynylphenyl)(1-methylpiperidin-4-yloxy)methyl]-1H-benzimidazole] cannot be ordered by Ki or IC50 activity class: less than 1000 nM for the first, less than 300 nM for the second.

`Cc1cc(F)c(C(OC2CCN(C)CC2)c2nc3ccccc3[nH]2)c(F)c1` (single isomer, unassigned) [Example 559, 2-[(2,6-difluoro-4-methylphenyl)(1-methylpiperidin-4-yloxy)methyl]-1H-benzimidazole] and `Cc1ccc(C(OC2CCN(C)CC2)c2nc3ccccc3[nH]2)cc1` (single isomer, unassigned) [Example 252, 2-[(1-methylpiperidin-4-yloxy)-p-tolylmethyl]-1H-benzimidazole] cannot be ordered by Ki or IC50 activity class: less than 30 nM for the first, less than 1000 nM for the second.

`CN1CCC(COC(c2cccc(Br)c2)c2nc3ccccc3s2)C1` (centres unmarked) [Example 465] and `CN1CCC(OC(c2nc3ccccc3s2)c2ccccc2F)CC1` (centres unmarked) [Example 6, 2-[(2-fluorophenyl)(1-methylpiperidin-4-yloxy)methyl]benzothiazole] cannot be ordered by Ki or IC50 activity class: less than 30 nM for the first, less than 300 nM for the second.

`CN1CCC(NC(c2cccc(OCCC3=CCC4CC3C4(C)C)c2)c2nc3ccccc3[nH]2)CC1` (centres unmarked) [Example 181, ((1H-benzimidazol-2-yl)-{3-[2-(6,6-dimethyl-bicyclo[3.1.1]hept-2-en-2-yl)ethoxy]phenyl}methyl)(1-methylpiperidin-4-yl)amine] and `CN1CCC(OC(c2cccc(-c3cccnc3)c2)c2nc3ccccc3[nH]2)CC1` (centres unmarked) [Example 89, 2-[(1-methylpiperidin-4-yloxy)(3-pyridin-3-ylphenyl)methyl]-1H-benzimidazole] cannot be ordered by Ki or IC50 activity class: less than 30 nM for the first, less than 300 nM for the second.

`CN1CCC(OC(c2cccc(-c3ccccc3Cl)c2)c2nc3ccccc3[nH]2)CC1` (centres unmarked) [Example 121, 2-[(2′-Chlorobiphenyl-3-yl)(1-methylpiperidin-4-yloxy)methyl]-1H-benzimidazole] and `CN1CCC(OC(c2nc3ccccc3s2)c2cc(OC(F)(F)F)ccc2F)CC1` (centres unmarked) [Example 526] cannot be ordered by Ki or IC50 activity class: less than 300 nM for the first, less than 30 nM for the second.

Same assay, conditions: human H4 receptor; evaluated in the GTPγ[35S] assay or in the [3H]histamine binding assay (not stated which per compound); Ki or IC50 class

`CN1CCC(OC(c2cccc(CCCNC(=N)N)c2)c2nc3ccccc3[nH]2)CC1` (centres unmarked) [Example 321, N-(3-{3-[(1H-benzimidazol-2-yl)(1-methylpiperidin-4-yloxy)methyl]phenyl}propyl)guanidine] showed a Ki or IC50 activity class of less than 30 nM.
